# Key:
# [1] = test system: DSS-induced acute colitis; assay: DSS-induced acute colitis mouse model (Lenti-shNS or Lenti-shITG transduced); format: in vivo, C57BL/6 mice; settings: Lenti-shNS-transduced mice
# Protocol: FIG. 8 confirms an effect of rCT-NAMPT in mice with DSS-induced acute colitis. Specifically, (A) an experimental plan for an acute colitis model treated with rCT-NAMPT (50 μg/kg) and 3% DSS after introduction of Lenti-shNS or Lenti-shITG virus (left) and the survival rates of mice monitored for 12 days (right). Mortality was measured with n=15 mice per group. Statistical differences between rVehicle treated animals were recorded (log-rank test). […] (B) confirms a change in body weight of the experimental animals during an experiment period in (A) above (n=8). (C) is a colitis score result of the experimental animals in (A) above. […] (H) Results of hematoxylin and eosin (H&E) staining of the colon (left) (n=10): Representative radiohistopathology scores were evaluated using rVehicle, rCT, or rCT-NAMPT in 3% DSS-treated mice as illustrated in techniques (Materials and Methods). Statistical significance was evaluated using a Student's t-test using Bonferroni correction (***p<0.001) in comparison to rVehicle;
# (§1) Dextran sodium sulfate (DSS)-induced acute or chronic colitis mouse models were constructed using 6-week-old C57BL/6 female mice (Samtako, Osan, Korea). […] The survival of mice was tracked for 12 days, and mortality was measured for n=15 mice per group. […] The survival of mice was tracked for 9 weeks, and mortality was measured for n=15 mice per group. […]
# [2] = test system: DSS-induced chronic colitis; assay: DSS-induced chronic colitis mouse model; format: in vivo, C57BL/6 mice; settings: 50 μg/kg i.p.
# Protocol: FIG. 10 confirms an effect of rCT-NAMPT in mice with DSS-induced chronic colitis. Specifically, (A) Scheme of the chronic colitis model treated with rCT-NAMPT (50 μg/kg) and 3% DSS. (B) The survival of mice was tracked for 9 weeks, and mortality was calculated for n=15 mice per group. Statistical differences between rVehicle treated animals were recorded (log-rank test). […] (C) Weight loss of rVehicle, rCT or rCT-NAMPT treatment in mice was confirmed (n=15). (D) Image (upper) and length (lower) of colon in 3% DSS-induced chronic colitis mice with rVehicle, rCT or rCT-NAMPT. (E) H&E staining of the colon (left) (n=8): a representative image. H&E staining was used to evaluate histopathology scores in 3% DSS-induced chronic colitis mice treated with rVehicle, rCT, or rCT-NAMPT. […]
# as §1
# Body weight, degree of bloody stool, and stool concentration were measured every day during the colitis induction to obtain the clinical score. The clinical score was determined by two trained investigators who were not provided with information about the experiment. […]
# colonic tissues = settings: mice with acute colitis, intraperitoneal injection, Cy5.5 conjugate
# Protocol: The number of ITGA6+ or ITGB1+ cells was analyzed by FACS.
# Mice were intravenously injected with a lentivirus expressing nonspecific shRNA (shNS) or shRNA specific for ITGA6 (sh ITGA6) or ITGB1 (shITGB1) 2 times and then orally administered with DSS (Acute or chronic Colitis) and rCT-NAMPT, and then experiments were performed.
# Next, to evaluate the specificity of rCT-NAMPT, ITGA6- or ITGB1-knockdown mice were generated through sh-Lentiviral transduction. The mice were treated with DSS and administered rCT-NAMPT/Cy5.5 via intraperitoneal injection on day 6.
sequence,measurement,setting,value
TWYKIAFQRNRK [rCT],survival rate / mortality,"[1]; 3% DSS, 50 μg/kg i.p. 8 times, 12 days",Neither rVehicle or rCT significantly affected mortality
same,colon histology (H&E staining),[1]; DSS,disrupted by DSS
same,body weights,[2],Body weights fluctuated
same,tissue targeting (colon versus other organs),colonic tissues,"specifically targeted colonic tissues in mice with acute colitis, but not in other organs"
